Results as given in patent publication US20080051464A1, “Protein phosphatase inhibitors” (The Cleveland Clinic Foundation, priority 2006, published 2008).

What was measured:
[1] = test system: pZap70, pSlp76 and pLAT in Jurkat cells; test: induction of pZap70, pSlp76 and pLAT in Jurkat cells (Western blotting); assay type: cell-based, human
Experimental: (§1) Jurkat cells in culture medium (3×10^6 cells/ml, 1 ml/tube) were treated with agents for designated times at room temperature. After brief centrifuging in a microfuge (4,000 rpm, 2 min), the cell pellet was lysed on ice for 30 min in 100 μl of cold lysis buffer (1% NP40, 50 mM Tris, pH 7.4, 150 mM NaCl, 20 mM NaF, 0.2 mM Na3VO4 and 1 mM Na3MO4) containing a cocktail of proteinase inhibitors (Sigma, 1 tablet/10 ml). The lysates were cleared by centrifuging (14,000 rpm, 10 min) in a microfuge at 4° C. to remove insoluble parts, mixed with equal volume of 2×SDS-PAGE sample buffer, boiled for 5 min and analyzed (˜3×10^5 cells/well) by SDS-PAGE/Western blotting. Relative intensities of phosphotyrosine bands were quantified through densitometry analysis.
Jurkat cells in culture medium (3×10^6 cells/ml, 1 ml/tube) were treated with agents for designated times at room temperature. […] The lysates were cleared by centrifuging (14,000 rpm, 10 min) in a microfuge at 4° C. to remove insoluble parts, mixed with equal volume of 2×SDS-PAGE sample buffer, boiled for 5 min and analyzed (˜3×10^5 cells/well) by SDS-PAGE/Western blotting as described previously (17, 18). Relative intensities of phosphotyrosine bands were quantified through densitometry analysis.

pERK1/2 in Jurkat cells = pERK1/2 in Jurkat cells (Western blotting); assay type: cell-based, human
Experimental: as §1
as §1, with “blotting as described previously (17, 18).” for “blotting.”

[2] = test system: IFNγ+ cells in mouse splenocytes; test: induction of IFNγ+ cells in mouse splenocytes in vitro (ELISPOT); assay type: cell-based; details: for increase of IFNγ+ cells in splenocytes: 16 hrs (FIG. 5A)
Experimental: The splenocytes were cultured in RPMI 1640 medium supplemented with 10% FCS in the absence or presence of designated agents for 16 hrs in flat-bottom 96-well plates coated with a monoclonal antibody specific for mouse IFNγ (mouse IFNγ ELISPOT Kit, R & D System). The plates were then processed for in situ detection of IFNγ+ cells by ELISA following the manufacturer's procedure. Scanning and counting of IFNγ+ cells in the plates were accomplished using an automatic ELISPOT reader with Immunospot2 software (Cellular Technology Ltd). Mouse splenocytes were also untreated or treated with agents for 16 hrs in culture dishes and then stained with appropriate isotype control antibodies or FICT-labeled anti-CD3 monoclonal antibody (BD) plus PE-labeled monoclonal antibody (BD) for intracellular IFNγ following established procedures. The stained samples were washed 3 times, re-suspended in 200 μl of 1% para-formaldehyde solution and analyzed (20,000 cells/sample) using a BD FACS Caliburs cytometer and WinList software.
The splenocytes were cultured in RPMI 1640 medium supplemented with 10% FCS in the absence or presence of designated agents for 16 hrs in flat-bottom 96-well plates coated with a monoclonal antibody specific for mouse IFNγ (mouse IFNγ ELISPOT Kit, R & D System). The plates were then processed for in situ detection of IFNγ+ cells by ELISA following the manufacturer's procedure. Scanning and counting of IFNγ+ cells in the plates were accomplished using an automatic ELISPOT reader with Immunospot2 software (Cellular Technology Ltd).

B16 melanoma tumors [3] = test: B16 melanoma tumor growth in athymic nude mice; assay type: in vivo, mouse; details: 3 mg/kg/day, oral, M-F/week
Experimental: To assess L5 anti-tumor activity, C57BL/6J mice or athymic nude mice (˜8-week old, female, Taconic Farms, Germantown, N.Y.) were inoculated (s.c.) at the flanks with B16 melanoma cells (4×10^4 cells/site). Four days post-inoculation, the mice were treated with PBS (Control) or L5 (˜3 mg/kg body weight/daily, Monday—Friday/week, oral gavage). Tumor volume (n=5) was measured during the study period and calculated using the formula for a prolate spheroid. Student's t test was used for assessing the significance of tumor volume differences among differential treatment groups. Mouse viability (daily) and body weights (weekly) were also recorded during the study period. Major internal organs of the mice were inspected visually upon their termination at the end of the experiment.

[4] = test system: pLck-pY505 (dephosphorylated by PTPase CD45) in Jurkat cells; test: pLck-pY505 in Jurkat cells (Western blotting); assay type: cell-based, human; details: L5-treated Jurkat cells
Experimental: as §1

B16 melanoma tumors [5] = test: B16 melanoma tumor growth in C57BL/6J mice; assay type: in vivo
Experimental: Tumor volume (n=5) was measured during the study period and calculated using the formula for a prolate spheroid. Student's t test was used for assessing the significance of tumor volume differences among differential treatment groups. Mouse viability (daily) and body weights (weekly) were also recorded during the study period. Major internal organs of the mice were inspected visually upon their termination at the end of the experiment.
To assess anti-tumor activity, C57BL/6J mice (˜8-week old, female, Taconic Farms, Germantown, N.Y.) were inoculated (s.c.) at the flanks with B16 melanoma cells (4×10^4 cells/site). […] Tumor volume (n=5) was measured during the study period and calculated using the formula for a prolate spheroid. Student's t test was used for assessing the significance of tumor volume differences among differential treatment groups. Mouse viability (daily) and body weights (weekly) were also recorded during the study period. Major internal organs of the mice were inspected visually upon their termination at the end of the experiment.

O=C1C=CC(=O)C(c2cc(Cl)ccc2Cl)=C1 [L5]
levels of pZap70 and pSlp76 ([1]; 0.01, 0.1, 1 or 3 μg/ml): obviously increased
pLAT ([1]; L5-treated Jurkat cells): induced pLAT
levels of pERK1/2 (pERK1/2 in Jurkat cells; 1 μg/ml): reduced the levels of pERK1/2
effect on SHP-2 or CD45 phosphatases (pERK1/2 in Jurkat cells; 10-100 ng/ml in Jurkat cells): did not affect
levels of pERK1/2 (pERK1/2 in Jurkat cells; lower doses (0.1 to 0.001 μg/ml)): not at lower doses
induction of IFNγ+ cells ([2]; 0.001 μg/ml (FIG. 11)): inactive
increase of IFNγ+ cells in splenocytes ([2]; 1 μg/ml): ~14 fold
increase of IFNγ+ cells in splenocytes ([2]; 3 μg/ml): ~26 fold
increase of IFNγ+ cells in splenocytes ([2]; 10 μg/ml): ~17 fold
increase of IFNγ+ cells in splenocytes ([2]; 30 μg/ml): ~10 fold
induction of IFNγ+ cells ([2]; 0.01 to 1 μg/ml (FIG. 11A)): effective
minimal effective dose for IFNγ+ cell induction ([2]; FIG. 11): 10 ng/mL
induction of IFNγ+ cells ([2]; higher doses (FIG. 16B)): induced significant IFNγ+ cells
induction of IFNγ+ cells ([2]; low doses (0.01 to 1 μg/ml), splenocytes of the same mouse (FIG. 16B)): 3-4 fold
effectiveness compared with SSG in inducing IFNγ+ cells ([2]; maximal induction at a comparable dose, mouse splenocytes): ~58 fold
B16 melanoma tumors in athymic nude mice (B16 melanoma tumors [3]): not inhibited
pLck-pY505 [4]: little effects
survival of treated mice (B16 melanoma tumors [5]; 1 mg/kg daily, oral gavage): survived till the end of the study
abnormality in behavior or gross anatomy (B16 melanoma tumors [5]; 3 mg/kg/day, oral): no apparent abnormality in behavior or gross anatomy
survival of treated mice (B16 melanoma tumors [5]; 3 mg/kg/day, oral): survived until the end of the study
growth inhibition of B16 tumors vs control (B16 melanoma tumors [5]; 3 mg/kg/day, oral, M-F/week, end of study): ~83%
